Experimental data from patent US20110213028A1, “FATTY ACID MYCOPHENOLATE DERIVATIVES AND THEIR USES” (CATABASIS PHARMACEUTICALS, INC., priority 2010, published 2011).

Experiments:
IL-1β = test: Effect on IL-1β expression in LPS-stimulated RAW 264.7 macrophages; type: cell-based; settings: RAW 264.7 mouse macrophages, dosed at 50 μM and 100 μM, 100 ng/ml LPS stimulation, FIG. 1
Experimental: RAW264.7 macrophages were seeded at a density of 100,000 cells/well in a 96-well plate in DMEM supplemented with 10% FBS and Penn/strep. 16 hours later, medium was aspirated and replaced with 90 μL/well of serum-free DMEM. Test compounds were brought up in 100% EtOH to a concentration of 100 mM and then diluted 1:100 in 100% FBS for a stock solution consisting of 1mM compound and 1% EtOH. These stock solutions were then diluted 1:10 in FBS supplemented with 1% EtOH to generate a 100 μM of the test compounds. 10 μL was then added to the RAW246.7 cells to generate final concentrations consisting of 10 μM of the fatty acid mycophenolate conjugate, along with vehicle only control. The compounds were allowed to pre-incubate for 2 hours before stimulation of 100 ng/ml LPS (10 μL of 1 μg/ml LPS was added to each well). Following 3 hours of LPS stimulation, cells were washed once in 1 ×PBS, aspirated dry, and flash frozen in liquid nitrogen. RNA was then isolated and converted to cDNA using the Cells to cDNA kit (Ambion) according to the manufacturer's protocol. IL-1β transcript levels were then measured using Taqman primer/probe assay sets (Applied Biosystems), normalized to GAPDH using the deltaCt method, and the data expressed relative to vehicle only control. FIG. 1 summarizes the effects of compounds I-1, I-2, I-5, and I-10 on the expression of IL-1β in RAW 264.7 mouse macrophages. All four compounds were dosed at 50 μM and 100 μM.

[1] = tested on: (NZB X NZW)F1 mouse model of systemic lupus erythematosus; settings: 200 mg/kg/day over a 6 week period; cited from earlier work
[2] = tested on: SLE-prone MRLlpr/lpr mice; settings: 100 mg/kg in drinking water; cited from earlier work
[3] = tested on: systemic lupus erythematosus patients; settings: mean dose of 1,328 mg/a day over a 1 or 2 year period; cited from earlier work

SMILES | IL-1β expression (transcript level relative to vehicle only control) (IL-1β) | autoimmunity and mortality [1] | survival, C3 deposition in glomeruli, albuminuria and haematuria [2] | disease flares [3]
CC/C=C\C/C=C\C/C=C\C/C=C\C/C=C\C/C=C\CCC(=O)NCCOCCNC(=O)CC/C(C)=C/Cc1c(O)c2c(c(C)c1OC)COC2=O [Compound I-2, (4Z,7Z,10Z,13Z,16Z,19Z)-N-(2-(2((E)-6-(4-hydroxy-6-methoxy-7-methyl-3-oxo-1,3-dihydroisobenzofuran-5-yl)-4-methylhex-4-enamido)ethoxy)ethyl)docosa-4,7,10,13,16,19-hexaenamide] | statistically significant decrease in IL-1β expression | – | – | –
CC/C=C\C/C=C\C/C=C\C/C=C\C/C=C\CCCC(=O)NCCNC(=O)CC/C(C)=C/Cc1c(O)c2c(c(C)c1OC)COC2=O [Compound I-10, (5Z,8Z,11Z,14Z,17Z)-N-(2-((E)-6-(4-hydroxy-6-methoxy-7-methyl-3-oxo-1,3-dihydroisobenzofuran-5-yl)-4-methylhex-4-enamido)ethyl)icosa-5,8,11,14,17-pentaenamide] | statistically significant decrease in IL-1β expression | – | – | –
COc1c(C)c2c(c(O)c1C/C=C(\C)CCC(=O)OCCN1CCOCC1)C(=O)OC2 [mycophenolate mofetil] | – | able to suppress autoimmunity and mortality | able to prolong survival, reduce the extent of deposition of C3 in glomeruli and reduce the occurrence of albuminuria and haematuria | effective in reducing disease flares
CC/C=C\C/C=C\C/C=C\C/C=C\C/C=C\C/C=C\CCC(=O)NCCNC(=O)CC/C(C)=C/Cc1c(O)c2c(c(C)c1OC)COC2=O [Compound I-1, (4Z,7Z,10Z,13Z,16Z,19Z)-N-(2((E)-6-(4-hydroxy-6-methoxy-7-methyl-3-oxo-1,3-dihydroisobenzofuran-5-yl)-4-methylhex-4-enamido)ethyl)docosa-4,7,10,13,16,19-hexaenamide] | statistically significant decrease in IL-1β expression | – | – | –
CC/C=C\C/C=C\C/C=C\C/C=C\C/C=C\C/C=C\CCC(=O)NCCSSCCNC(=O)CC/C(C)=C/Cc1c(O)c2c(c(C)c1OC)COC2=O [Compound I-5, (4Z,7Z,10Z,13Z,16Z,19Z)-N-(2-(2-(2-((E)-6-(4-hydroxy-6-methoxy-7-methyl-3-oxo-1,3-dihydroisobenzofuran-5-yl)-4-methylhex-4-enamido)ethyl)disulfanyl)ethyl)docosa-4,7,10,13,16,19-hexaenamide] | statistically significant decrease in IL-1β expression | – | – | –
